Experimental data published in patent US10799457B2, “Exosomal compositions and methods for the treatment of disease” (priority 2010, dated 2020).

Assays:
C57BL/6 mice = assay: Experimental autoimmune encephalitis (EAE), MOG 35-55 induced; format: in vivo; settings: intranasal daily from day 4, 1.5 nmoles; scale 0-5
Method: EAE was induced in six-week-old female C57BL/6 mice using a procedure described previously (67). Briefly, mice were primed subcutaneously in the flanks with 150 μg of Myelin Oligodendrocyte Glycoprotein (MOG) 35-55 peptide (Biosynthesis, Lewisville, Tex.) per animal. The peptide was emulsified in complete Freund's adjuvant (CFA) containing 1 mg/ml of Mycobacterium tuberculosis H37RA (Difco, Detroit, Mich.). Two days later the mice were injected IP with 500 ng of Pertussis toxin (Alexis Corp., San Diego, Calif.) in 100 μl of PBS. Mice (n=10) were treated intranasally with daily doses of 1.5 nmoles of Exo-cur, or with Cur- or Exo-controls in PBS or PBS-control for 26 consecutive days. […] The mice were scored as follows: 0, no detectable signs of EAE; 1, complete limp tail; 2, limp tail and hindlimb weakness; 3, severe hindlimb weakness; 4, complete bilateral hindlimb paralysis; 5, total paralysis of both forelimbs and hindlimbs or death.
Relative quantification of select mRNA was performed using a CFX96 Realtime System and SsoFast™ Evagreen® supermixture (Bio-Rad Laboratories, Hercules, Calif.) according to the manufacturer's instructions. […] Fold changes in mRNA expression between treatments and controls were determined the ΔCT method (91). Fluorescence threshold cycle (Ct) values were calculated using SDS 700 System Software (Bio-Rad Laboratories, Hercules, Calif.). […]

Gr1^+ cells = assay: Gr1+ cell apoptosis, Annexin V FACS analysis; format: cell-based, Mouse; settings: 5 μM and 10 μM, 8 hours, Annexin V-FITC FACS
Method: For cell surface marker staining, isolated cells were blocked at 4° C. for 5 min with 10 μg/ml mouse Fc block (BD Biosciences, San Jose, Calif.) and then reacted with various fluorochrome-labeled antibodies including appropriate isotype controls for 30 min at 4° C. After washing twice, cells were fixed and analyzed using a FACSCalibur flow cytometer (Becton Dickinson Biosciences, San Jose, Calif.). Data were analyzed using FlowJo software (Tree Star, Inc., Ashland, Oreg.). The following antibodies were used for immunostaining: FITC-Annexing V (Invitrogen, Carlsbad, Calif.), APC anti-mouse CD11b and PE anti-mouse Gr-1 (eBiosciences, San Diego, Calif.).
Mouse bone marrow cells were isolated as described previously (22). The isolated bone marrow cells were re-suspended to a concentration of 1×10^8 cells/ml using RPMI 1640 medium supplemented with 10% FBS. A Gr1-PE conjugated antibody (3 μg/ml), following a mouse FcR blocking specific antibody (5 μl/ml), was added, mixed thoroughly and incubated at 4° C. for 15 min. After centrifugation at 1500 rpm for 5 min, cells were re-suspended in fresh medium to a concentration of 1×10^8 cells/ml. EasySep® PE selection cocktail (25 μl/ml, StemCell Technologies, Vancouver, British Columbia) was added to the cells and incubated at 4° C. for 15 min. […]

[1] = In vitro stability assay in PBS (pH 7.4) at 37° C.; format: physicochemical; settings: 150 min
Method: The fold reduction of the concentration at each time was determined by comparison to the beginning value. The experiments were repeated three times for each time point (n=3).

C57BL/6j mice = assay: LPS mouse septic shock model; format: in vivo; settings: 16 hours after IP injection of LPS, 4 mg/kg IP
Method: Mouse mortality was monitored over a period of 4 days. The sera were collected 16 hr after LPS injection and used to determine IL-6 and TNF-α levels using ELISAs as before. At day 1 after LPS challenge, 3 mice from each treated group were sacrificed and the leukocytes in the lungs were isolated using a method described previously (21). The percentage of CD11b^+Gr-1^+ cells in the lung was determined by FACS analysis.
Briefly, to monitor mice mortality, a LD50 (median lethal dose) of LPS was determined first. LPS (5 mg/ml, Sigma, St. Louis, Mo.) was then prepared with sterile H2O and varied amounts of LPS were IP injected into the same batch of commercially supplied C57BL/6j mice. Each group contained 6 mice. […] Exosomes and PBS injections served as controls.

For `COc1cc(/C=C/C(=O)CC(=O)/C=C/c2ccc(O)c(OC)c2)ccc1O` [curcumin], the “EAE disease severity score” value (C57BL/6 mice) was 3.60±0.12, the “Gr1+ cell apoptosis” value (Gr1^+ cells) was “induces Gr1^+ cell apoptosis” and the “curcumin remaining after incubation compared to the 0 min sample” value [1] was 25%. For the same compound, the “sera level of IL-6” value (C57BL/6j mice) was “similar” and the “sera level of TNF-α” value (C57BL/6j mice) was “similar”.
